Experimental data as given in US7919577B2, “Adrenocorticotropic hormone analogs and related methods” (Colorado Seminary, priority 2004, dated 2011).
No end group written: not given here.

Key:
[1] = tested on: explanted mouse adrenal membrane (adrenal halves); assay: in vitro Serum-free Adrenal Inhibition Assay (Example 4); assay type: cell-based; conditions: FIG. 4
Protocol: A series of separate in vitro Serum-Free Adrenal Corticosteroid Inhibition Assay were performed to identify ACTH analogs that inhibit ACTH-induced adrenal hormone production in vitro. The concentration of corticosterone was measured according to the procedure of Example 4 in a serum-free culture medium containing explanted adrenal membrane and unmodified ACTH, AT814 ACTH analog (SEQ ID NO:20), or a combination of ACTH and AT814 at 100 ng/mL each. […] Corticosterone levels were taken at 2.0 hours after the adrenal membrane was placed in the serum free M199 medium, and each corticosterone level in Table 5 is an average of five samples.
The in vitro Serum-free Adrenal Inhibition Assay was performed according the following method. First, adrenals were removed from mice, dissected free of fat, and cut in half. See Costa, J L, et al., “Mutational analysis of evolutionarily conserved ACTH residues,” Gen Comp Endocrinol. 136:12-16 (2004); and Weber, M M, et al., “Postnatal overexpression of insulin-like growth factor II in transgenic mice is associated with adrenocortical hyperplasia and enhanced steroidogenesis,” Endocrinology 140:1537-1543 (1999), incorporated herein by reference.
Second, each adrenal half was placed into an individual well of a 4-well dish, one dish per mouse. Adrenal halves were incubated at 5% CO2, 37° C., in 0.5 ml serum-free medium (M199; Invitrogen) for 30 minutes to equilibrate.
Third, medium was removed and replaced by 0.5 ml M199 containing ACTH, AT814, or both, at 100 ng/ml each; controls had no peptides added.
Fourth, after 2 hours of incubation, the medium was removed, pooled for all four halves from each mouse, and assayed by corticosterone using standard RIA methods. corticosterone was determined by competitive radioimmunoassay (^125I RIA kit; ICN, Costa Mesa, Calif.) according to the manufacturer's recommendations. One microliter of serum was used per assay sample. Samples were run in duplicates.

[2] = tested on: dexamethasone-suppressed male FVB/N mice; assay: in vivo Serum Corticosteroid Induction Assay (Example 1); parameters: species or system mouse; conditions: relative to unmodified mACTH(1-24); 1 μg subcutaneously to dexamethasone-suppressed mice; blood one hour later
Protocol: An in vivo Serum Corticosteroid Induction Assay measures the level of corticosteroid or corticosterone in the blood stream of a subject. More specifically, the in vivo Serum Corticosteroid Induction Assay can include the following steps: first, an agent to suppress endogenous ACTH production was administered to a mouse subject, such as an intraperitoneal injection of dexamethasone; second, after waiting a suitable period of time for suppression of endogenous ACTH production (e.g., 1.5-2.0 hours), a test compound can be administered to the mouse by a suitable method, such as intraperitoneal or subcutaneous injection; and third, after waiting a suitable period of time (e.g., 1 hour) for action of the injected test compound, a blood sample can be taken from the subject and the level of serum corticosterone can be determined by a suitable method, such as a competitive radioimmunoassay using ^125I RIA kit (ICN, Costa Mesa, Calif.). Example 1 describes a murine in vivo Serum Corticosteroid Induction Assay in detail.
The corticosteroid or corticosterone secretion induced in vivo by an ACTH analog compound was compared to the level of corticosteroid secretion produced by an unmodified ACTH compound by measuring blood serum corticosteroid after administering either the ACTH or ACTH analog as test compounds. […] ACTH analog compositions with decreased function were identified by measuring corticosterone levels using standard radioimmunoassay (RIA) analysis on blood samples collected one hour after administering the mACTH(1-24) or ACTH analog compound to dexamethasone-suppressed mice. In FIG. 1, the potency of various ACTH analog peptides is expressed as percent induction of corticosterone, with mouse ACTH being 100%. […] The percent of corticosterone induction 12 of ACTH analog Compounds in Samples 2-10 are shown as a percentage of the concentration of serum corticosterone 20 measured for unmodified mACTH(1-24) in the in vivo Serum Corticosteroid Adrenal Induction Assay. The structural modifications and measured percentage reduction in serum measured for Samples 2-10 in FIG. 1 are shown in Table 3 below.
The in vivo Serum Corticosteroid Induction Assay was performed according the following method. First, two to three month-old male FVB/N mice from our colony, five per group, were injected intraperitoneally with dexamethasone (0.4 mg/0.1 ml PBS per mouse; Sigma, St. Louis, Mo.) to suppress their endogenous ACTH production. See Hajos, G T et al., “Studies of the potency of polypeptides with ACTH action by a new method based on continuous measurement of plasma corticosterone,” Steroids Lipids Res 3:225-228 (1972), Costa, J L, et al., “Mutational analysis of evolutionarily conserved ACTH residues,” Gen Comp Endocrinol, 136:12-16 (2004), and Karpac, J, et al., “Development, Maintenance, and Function of the Adrenal Gland in Early Postnatal Pro-opiomelanocortin Null Mutant Mice,” Endocrinology (2005), published online ahead of print Feb. 24, 2005, all of which are incorporated herein by reference.
Second, ninety to one hundred twenty minutes later, the dexamethasone-suppressed mice were injected subcutaneously between the shoulder blades with either unmodified mACTH(1-24) or one of several ACTH analog peptide compounds (1 μg/0.1 mL PBS/0.5% BSA), or with vehicle alone (control) (0.1 mL PBS/0.5% BSA). The following ACTH analog peptide compounds were administered to separate mice: 1: murine ACTH1-24; 2: V26F,E30K; 3: P19W,K21E,Y23R; 4: E30K,P36R; 5: ALA19-24; 6: V26F,P36R; 7: P19W, K21E; 8: P19W,K21A,delY23; 9: P19W,K21A; 10: KRRP16-19RAAW (AT814) (SEQ ID NO:20).
Third, one hour later, blood was collected within less than 1 minute from a small incision in the tail, and serum was flash-frozen and stored at −80° C. until assayed. Serum corticosterone was determined by competitive radioimmunoassay (^125I RIA kit; ICN, Costa Mesa, Calif.) according to the manufacturer's recommendations. One microliter of serum was used per assay sample. […]

With “N-Ser^1-Tyr-Ser-Met-Glu^5-His-Phe-Arg-Trp-Gly^10-Lys-Pro-Val-Gly-Lys^15-Arg-Ala-Ala-Trp-Val^20-Lys-Val-Tyr-Pro-Ac (SYSMEHFRWGKPVGKRAAWVKVYP; not fully specified; printed as N-Ser1-Tyr-Ser-Met-Glu5-His-Phe-Arg-Trp-Gly10-Lys-Pro-Val-Gly-Lys15-Arg-Ala-Ala-Trp-Val20-Lys-Val-Tyr-Pro-Ac) [AT814]” the “corticosterone induction by analog alone” value ([1]; AT814 alone in M199 serum-free medium) was “only a negligible amount of corticosterone induction”, the “reduction of corticosterone induction compared to unmodified ACTH alone” value ([1]; equal amounts of AT814 and unmodified ACTH) was “about 65%” and the “Percent reduction in serum corticosteroid” value [2] was 100%.
